Values joined by “and” are separate entries in the source; they are usually repeats but may differ in a detail not shown here. Equal values may be shown once. Marks after values point to notes of the source that are not given here.
Assays:
[1] = tested on: 5637 human urinary bladder cancer cells; test: Wound healing (two-dimensional migration) assay, 5637; assay type: cell-based; conditions: 5637, 10.00 μmol/l, 24 h (FIG. 1C)
Procedure: (§1) 1) Cell lines: Cell lines of 5637 human bladder carcinoma, Eca-109 human esophageal carcinoma, HT29 human colon cancer, SGC-7901 human gastric cancer, A549 human lung adenocarcinoma and PC-3 human prostate carcinoma were purchased from the Type Culture Collection of the Chinese Academy of Sciences, Shanghai, China.
(§2) 3) Methods: The cells were trypsinized to generate a single-cell suspension and seeded in 96-well plates (200 μl/well), and incubated with medium containing 10% fetal bovine serum at 37 in a humidified atmosphere with 5% CO2. Following a 24 h incubation, the cells were starved for an additional 12 h in low-serum media (1% FBS). The cultures of Eca-109, HT29, 5637, SGC-7901, A549 and PC-3 were then scratched away with a 200-μl plastic pipette tip and rinsed twice with PBS to remove wound-derived loose and dislodged cells. The cells were cultured in replaced medium without or with compounds at final concentrations of 0, 2.50, 5.00 and 10.00 μmol/L, respectively. At least seven randomly selected views along the scraped line in each well were photographed immediately and 24 h and 36 h after incubation using a digital camera at 50× magnification. The average scraped area in each well under each treatment condition was measured, and the percentage of inhibition against cell migration was calculated. % of inhibition=1−(A0−At)/(A′0−A′t)×100%, where, A0 and At are the areas of wound with compound treatment measured immediately and 24 or 36 h post-injury, respectively; A′0 and A′t are the areas of wound without compound treatment measured immediately and 24 or 36 h post-injury, respectively.

[2] = tested on: A549 human lung adenocarcinoma; test: Colony formation assay, A549; assay type: cell-based
Procedure: (§3) 1) Cell lines: Cell lines of SGC-7901 human gastric cancer, A549 human lung adenocarcinoma and Hela human cervical carcinoma were purchased from the Type Culture Collection of the Chinese Academy of Sciences, Shanghai, China.
(§4) 3) Method: Colony formation assay was used. The cells were trypsinized to generate a single-cell suspension and seeded in a 6-well plate at a density of 100 cells/well, then drug-containing medium was added to the well to make the final concentration of compound to 0, 1.25, 2.50, 5.00, 7.50, 10.00 μmol/L, respectively. The experiments were performed in duplicate, and the cells were cultured at 37 in a humidified atmosphere with 5% CO2. Terminate cell culture when the clones can be seen in the culture plate, then remove the culture medium, and wash twice with PBS, fix the cells with methanol (5 ml/well) for 15 min and stain the cells with hematoxylin-eosin stain. The number of clones which comprised more than 50 cells was counted under a TS100-F-PH microscope (Nikon Company, Japan). Calculate relative colony formation ratio (%) and the IC50 values. Relative colony formation ratio (%)=(colony number of drug-administration well/colony number of control well)×100%.

[3] = tested on: SGC-7901 human gastric cancer; test: Colony formation assay, SGC-7901; assay type: cell-based
Procedure: as §3, §4

[4] = tested on: Hela human cervical carcinoma; test: Colony formation assay, Hela; assay type: cell-based; conditions: Hela; read-out: Inhibition against tumor cell colony formation IC50
Procedure: as §3, §4

[5] = tested on: PC-3 human prostate carcinoma cells; test: Wound healing (two-dimensional migration) assay, PC-3; assay type: cell-based; conditions: PC-3, 10.00 μmol/l, 36 h (FIG. 1F)
Procedure: as §1
as §2, with “The cells were cultured in replaced medium without or with compounds at final concentrations of 0, 2.50, 5.00 and 10.00 μmol/L, respectively. At least seven randomly selected views along the scraped line in each well were photographed immediately and 24 h and 36 h after incubation using a digital camera at 50× magnification.” left out

[6] = tested on: Murine hepatoma H22; test: Anti-tumor and anti-angiogenesis effects on H22 tumor-bearing mice; assay type: in vivo, mouse; conditions: H22 mice, 20.00 mg/kg ig once a day 7 d
Source text: 1) Animals: Kunming mice of clean grade, half male and half female, body weight 20±2 g, were purchased from the experimental animal center of Henan Province, China. Qualified Certificate number: SCXK (Yu) 2005-0001.
2) Cells: Murine hepatoma H22 cells were presently obtained from Henan Academy of Medical and Pharmaceutical Sciences (Zhengzhou, China).
Cyclophosphamide (Cyc) was produced by Tianjin Jingshi Pharmaceutical Co., Ltd., China (approval number of medicine: H12021006). Gelatin and carmine red were supplied by Sigma Chemical (St. Louis, Mo., U.S.A). All other chemicals and reagents were of the highest commercial grade available. All drugs were prepared with normal saline emulsified with Tween-80 (0.1% v/v) and dispersed in carboxymethylcellulose (0.5% v/v). 10% (W/V) carmine solution was prepared with salt solution containing 5% (W/V) gelatin which should be used immediately after preparation. The rest of medicines and reagents and the methods for preparation were the same with that of EXAMPLE 1.
4) Method: The H22 cells after in vivo passage for 7 d were diluted with physiological saline to adjust to a concentration of 1×10^7/mL, injected to the armpit of right forelimb of mice subcutaneously (0.2 ml/mouse), then mice were divided into 10 groups (n=12; 6 male and 6 female per group) randomly. 24 h later each group of mice was administrated intragastrically (ig; 0.2 ml/10 g) once a day continuously for 7 d with vehicle (tumor control group and control group), Cyc (standard control), or compounds at the tested doses. After the last drug administration and a following fasting of 8 h, each mouse was anesthetized with 1% pentobarbital in normal saline solution (80 mg/kg; ip). Mice of control group were injected with 5% gelatin in normal saline solution (40) via the tail vein (1 ml/mouse); whereas mice of other groups were injected replaced by 10% carmine red and 5% gelatin in normal saline solution (40). Mice were killed, then freezed in a refrigerator at −20 for 2 h to solidify. Tumors were segregated, weighed and homogenized with 3 M NaOH solution (10 ml/g tumor). The homogenate supernatant was prepared by being centrifuged for 20 min at 14000 rpm, and the absorbance at 490 nm was assayed using a PowerWaveX Microplate Scanning Spectrophotometer (Bio-tek Instruments, Inc). The carmine red content was calculated based on the standard curve. The vascular index (VI) expressed as milligram of carmine red per gram of tumor tissue. The inhibition ratio (IR) of tumor growth was calculated using the formula: IR (%)=[(Wc−Wt)/Wc]×100%, where Wc is the average tumor weight of the control group, and Wt is that of the drug treatment group. Data were expressed as mean±SD and statistical analysis was performed by SPSS Statistics 17.0 using a one-way analysis of variance (ANOVA) followed by unpaired t-test. A value of P<0.05 was considered statistically significant.

[7] = tested on: TNF-α; assay type: in vivo, mouse; conditions: mouse, in vivo, 30 mg/kg
[8] = assay type: in vivo, mouse; conditions: C57BL/6 mice, before vs 24 d after administration, Cyc 30 mg/kg ig
Procedure: (§5) 4) Method: B16-F10 cells in logarithmic growth phase were trypsinized, then resuspended in RPMI1640 medium containing 10% fetal bovine serum and centrifuged at 1000 rpm for 5 min. The supernatant was removed and sterile PBS was added to prepare single-cell suspension (10^7/mL). The murine melanoma lung metastasis model was established in mice via caudal vein injection of B16-F10 cells (0.2 ml/mouse). Mice were randomly divided into 4 groups (n=5) according to body weight, and 24 h later they were administrated intragastrically (ig; 0.2 ml/10 g) once a day continuously for 24 d with vehicle (tumor control group), Cyc (30 mg/kg), compound 3 at 0.85 mmol/kg and 1.10 mmol/kg. Mice were weighed and blood was collected by removing the eyeball at 24 h after the last administration. Sacrificed the mice, removed the lung and counted the number of melanoma nodules in lungs of mice under an anatomical lens. Serum obtained after centrifugation at 3000 rpm for 20 min (3K30 refrigerated centrifuge, Sigma, USA) was conserved at −20° C. Levels of TNF-α and IL-1β in serum were measured by ELISA method, which were performed in accordance with the instructions of the kits.

[9] = tested on: B16-F10 mouse melanoma cells; assay type: in vivo; conditions: B16-F10, C57BL/6 mice, 30.00 mg/kg ig 24 d
Procedure: 1) Animals: A total of 20 C57BL/6 male mice of clean grade [Number of Animal License: SCXK (Xiang) 2009-0004], weighing 18-22 g, were purchased from Hunan Slca Jingda Experimental Animal Center Company, Ltd., China.
2) Cells: B16-F10 mouse melanoma cells were purchased from Nanjing KeyGen Biotech. Co. Ltd., China.
as §5
Data were expressed as mean±SD and statistical analysis was performed by SPSS Statistics 17.0 using a one-way analysis of variance (ANOVA) followed by unpaired t-test. A value of P<0.05 was considered statistically significant. The inhibition ratio (IR %) of lung metastasis was calculated as follows: IR %=(Nc−Nt)/Nc×100%, where Nc is the average number of nodules in lung tissues of vehicle, and Nt is that of mice treated with drugs.

[10] = tested on: IL-1β; assay type: in vivo, mouse; conditions: mouse, in vivo, 30 mg/kg
[11] = tested on: S180 murine sarcoma; test: Growth, invasion and metastasis of S180 sarcoma in tumor-bearing mice; assay type: in vivo, mouse
Procedure: 1) Animals: Be the same with that of EXAMPLE 4.
2) Cells: The S180 murine sarcoma cells were obtained from Henan Academy of Medical and Pharmaceutical Sciences (Zhengzhou, China).
4) Method: Mice were randomly divided into 10 groups (n=12). The S180 cells after in vivo passage for 7 d were diluted with physiological saline to adjust to a concentration of 1×10^7/mL. The inoculation of tumor cells was conducted in two batches, those of tumor control group I and groups treated with compounds 1 or 3 were in batch 1, those of tumor control group II, Cyc group and the compound 2 groups were in batch 2. The mice were injected with S180 cells (0.2 ml/mouse) into the armpit of right forelimb subcutaneously, and 24 h later each group of mice was administrated intragastrically (ig; 0.2 ml/10 g) once a day continuously for 9 d with vehicle (tumor control group), Cyc (standard control), or compounds at the tested doses. On day 10, kill the mice, observe and record the degree of invasion and metastasis of tumor tissues, then the tumor tissues were segregated and weighed. The inhibition ratio (IR) of tumor growth was calculated by the following formula: IR (%)=[(Wc−Wt)/Wc]×100%, where Wc is the average tumor weight of the control group, and Wt is that of the treatment group. Data were expressed as mean±SD and statistical analysis was performed by SPSS Statistics 17.0 using a one-way analysis of variance (ANOVA) followed by unpaired t-test. A value of P<0.05 was considered statistically significant.

[12] = read-out: Inhibition against tumor cell colony formation IC50

SMILES: C=C1CCC2C(C)(CO)C(O)CCC2(C)C1C=CC1=CC(=Cc2ccccc2)OC1=O (centres unmarked) [Compound 4]
- Inhibitory effect on two-dimensional migration [1]: much stronger than that of other tumor cells
- Inhibition of colony formation compared with andrographolide [2]: remarkably stronger than that of andrographolide
- IC50 [2, 12]: 4.51 µM
- Inhibition of colony formation compared with andrographolide [3]: remarkably stronger than that of andrographolide
- IC50 [3, 12]: 5.07 µM
- IC50 [4]: 4.84 µM
- Inhibitory effect on two-dimensional migration [5]: much stronger than that of other tumor cells

SMILES: O=P1(N(CCCl)CCCl)NCCCO1 (centres unmarked) [Cyc, Cyclophosphamide, reference compound]
- IR (%) of tumor growth [6]: 29.34* %
- Carmine contents ([6]; mean ± s): 4.24 ± 2.29
- VI (vascular index, mg carmine red per g tumor tissue) ([6]; mean ± s): 4.87 ± 1.13 mg/g
- TNF-α in serum [7]: 8.45 ± 9.54
- Average increase in body weight [8]: 0.7 g
- IR (%) of lung metastasis ([9]; 30 mg/kg): 47.92%
- Lung index ([9]; mean ± s, n = 5): 6.66 ± 0.37 mg/g
- Nodule number (melanoma nodules in lungs) ([9]; mean ± s, n = 5): 43.76 ± 11.70
- IL-1β in serum [10]: 41.58 ± 4.39 pg/mL
- IR (%) of S180 sarcoma growth ([11]; 30.00 mg/kg ig once a day 9 d): 53.61% and 53.61 ± 12.43 %
- Average invasion and metastasis grade ([11]; S180, grades 0-4, 30.00 mg/kg): 3.67
- Mouse Number Grade 0 ([11]; S180 invasion, Grade 0: no invasion, 30.00 mg/kg): 0
- Mouse Number Grade 1 ([11]; S180 invasion, Grade 1: invasion to right forelimb, 30.00 mg/kg): 0
- Mouse Number Grade 2 ([11]; S180 invasion, Grade 2: right forelimb and the left side of body, 30.00 mg/kg): 0
- Mouse Number Grade 3 ([11]; S180 invasion, Grade 3: also the ribs and muscles in chest, 30.00 mg/kg): 4
- Mouse Number Grade 4 ([11]; S180 invasion, Grade 4: invasion into chest or abdominal cavity, 30.00 mg/kg): 8
